Measured values reported in patent publication US20060041013A1, “Alanosine formulations and methods of use” (priority 2004, published 2006).
Where two headings read alike, the source gives them in different places.

Tests used:
A549 = assay: Docetaxel, 5-FU, SDX-102 alone or combined, MTT/MTS cytotoxicity (Example 4); format: cell-based; details: Homo sapiens; A549, NSCLC, single agent, MTT 72 hours
[1] = 6 months, 20 mg/mL, pH 8.5
Method: Each solution was divided into 5 mL aliquots and placed in 6 mL vials sealed with Teflon-faced screw caps (VWR Scientific, catalogue No. 66011-880). Vials of each solution were placed at five different temperatures, −20° C., 5° C., 25° C., 40° C., and 60° C., and aliquots were analyzed at various time points to determine stability.

[2] = format: physicochemical; details: for Amount degraded/day (%) / Predicted purity after 2 years: Arrhenius analysis
Method: An Arrhenius analysis was performed to predict the loss of potency and increase in degradation products over time for commonly used storage temperatures for many drugs. […] Sets of the different solutions were then placed at 40° C., 50° C., or 60° C., and samples were taken every ten days over a 60 day period. […] Specifically, these plots show a distinct difference in purity as a function of pH and temperature. […] In the pH 7.5 formulation, there was more of each of these four impurities as compared to the pH 8.5 formulation. The impurity at RRT 0.32 formed readily as a function of temperature and pH. The impurities at RRTs 0.43 and 0.46 also formed as a function of temperature and pH, but not as readily.
Indeed, the purity of the samples is similar at pH 8.5 and 9.0. […] The trends in the data shown in FIG. 5 allow an Arrhenius analysis to be performed to predict changes in purity over time at various temperatures, particularly 5° C. and 25° C. Linear regression was used to determine the positions of the lines shown in FIG. 5, which then allowed the slope of the lines (i.e., the reaction rates, per day) to be determined for each pH and a given temperature. Arrhenius plots were the generated for each of pHs 7.5, 8.5 and 9.0 from the reaction rate versus the inverse temperatures. These plots are shown in FIG. 7, which allow the equation of the lines for each of three liquid formulations to be calculated. From these equations, the purity of any given temperature for a particular formulation at a given time can be predicted.
The HPLC system (Waters Corp., model 2690 Gradient HLPC System) employed a 4.6 mm×250 mm column (MetaChem Inc.) containing 5 μm particles (Inertsil ODS-3) as the stationary phase. The system was equipped with a UV/VIS detector (Waters Corp., model 996) set to 226 nm to monitor products being eluted from the column. Data generated from the column was managed on a personal computer running Empower Software (Waters Corp.). After preparation, the column was washed with at least 100 mL of water/acetonitrile (90:10, v/v), and stored at ambient temperature in the same solution.
In each HPLC run, the mobile phase, flowing at 1.0 mL/min., comprised 7.0 g of anhydrous monobasic potassium phosphate (KH2PO4; JT Baker) dissolved in 1000 mL H2O (at least HPLC grade). The pH of the solution was adjusted to 2.5 using phosphoric acid (85%, Fisher Scientific). 2.4 g of 1-decane sulfonic acid, sodium salt (Avocado Research Chemicals) was then mixed into the solution. 50 mL of acetonitrile (HPLC Grade, Burdick & Jackson) was then mixed with 950 mL of this solution. This mixture was then degassed by filtering through Durapore membrane filters, 0.45 μm, Type HVLP, under vacuum. The column flow rate was set at 1.0 mL/min.
Diluent was prepared by dissolving 3.5 g KH2PO4 and 3.5 g (Na2HPO4, Mallincrodt) in 1000 mL of HPLC grade H2O. […] Once prepared, an alanosine standard solution was stored at ambient temperature and retained for no more than seven days.
In addition to an alanosine standard solution, a sensitivity standard was also prepared by diluting 1 mL of the alanosine standard solution 1:100 using diluent.
HPLC runs were performed after the column had equilibrated for at least three hours in the mobile phase at room temperature. Column suitability was assessed at the beginning and end of each series of experiment as follows. Initially, two 10 μL aliquots of diluent were injected onto the column in duplicate, and the chromatographs recorded and examined.

NCI-H2452 = assay: Intracellular ATP levels (Cell-Titer Glow); format: cell-based; details: Homo sapiens, 72 h; NCI-H2452, Mesothelioma, MTAP Negative; 3 day treatment; read-out: ATP IC50
Method: (§1) MTAP status was determined using immunoblot analyses and correlated with the ability of an MTA analog to rescue ATP levels in cell lines treated with SDX-102. ATP levels were measured using Cell-Titer Glow™ (Promega) after a 3 day treatment with titrated concentrations of either SDX-102 or pemetrexed.

BxPC3 = assay: Intracellular ATP levels (Cell-Titer Glow); format: cell-based; details: Homo sapiens, BXPC-3, 72 h; BxPC3, Pancreatic, MTAP Negative; 3 day treatment
Method: as §1

A-594 = assay: Intracellular ATP levels (Cell-Titer Glow); format: cell-based; details: 72 h; A-594, NSCLC, MTAP Negative; 3 day treatment
Method: as §1

HS-766T = assay: Intracellular ATP levels (Cell-Titer Glow); format: cell-based; details: Hs766T, 72 h; HS-766T, Pancreatic, MTAP Positive; 3 day treatment
Method: as §1
(§2) ATP values measured using Cell-Titer Glow™ (Promega) after 3 days exposure to the MTA analog. Solid lines in FIG. 8 represent the effect of titrations of SDX-102 from 0.05 μM-20 μM (FIG. 8A) or pemetrexed from 0.01 μM-5 μM (FIG. 8B) on cellular ATP levels. The dotted lines represent the effect of a single concentration of SDX-102 (10 μM) or pemetrexed (2.5 μM) with a titration of an MTA analog from 0.1 μM-50 μM.

NCI-H226 = assay: Intracellular ATP levels (Cell-Titer Glow); format: cell-based; details: Homo sapiens, 72 h; NCI-H226, Mesothelioma, MTAP Positive; 3 day treatment
Method: as §1, §2

A-427 = assay: Intracellular ATP levels (Cell-Titer Glow); format: cell-based; details: Homo sapiens, 72 h; A-427, NSCLC, MTAP Positive; 3 day treatment
Method: as §1, §2

[3] = Temperature and pH effects on stability (5 days at 5° C. or 80° C.); format: physicochemical; details: for osmolality: about 20 mg/mL
Method: Stability studies were then performed at different pHs. […] The pH of the solution was then adjusted in increments of 0.5 using 1N NaOH. Stability measurements of two duplicate samples were taken at each increment, beginning at pH 6.5 up through pH 9.0, and one sample was taken at pH 12.2. One set of samples was stored at 5° C., the other at 80° C., for five days, after which they were analyzed for pH, physical appearance, osmolality, and impurities. […] Here, impurities were determined by reverse phase HPLC as described herein.

Q: For `NC(CN(O)N=O)C(=O)O` [L-alanosine, L(−)-2-amino-3-nitrosohydroxylaminopropionic acid], which IC50 (A549) is on record?
A: 300 ± 100 nM

Q: And the “stability versus freshly reconstituted lyophilizate (HPLC)” value [1]?
A: as stable after storage at 5 °C for six months as a composition prepared by freshly reconstituting lyophilized L-alanosine

Q: And the “Amount degraded/day (%)” value ([2]; 20 mg/mL, pH 7.5, 5° C.)?
A: 0.000374%

Q: What about the “Predicted purity after 2 years” value ([2]; 20 mg/mL, pH 7.5, 5° C.) of the same compound?
A: 99.727%

Q: And the “Amount degraded/day (%)” value ([2]; 20 mg/mL, pH 7.5, 25° C.)?
A: 0.000601%

Q: What about the “Predicted purity after 2 years” value ([2]; 20 mg/mL, pH 7.5, 25° C.) of the same compound?
A: 99.561%

Q: And the “Predicted purity after 2 years” value ([2]; 20 mg/mL, pH 8.5, 5° C.)?
A: 99.985%

Q: And the “Predicted purity after 2 years” value ([2]; 20 mg/mL, pH 8.5, 25° C.)?
A: 99.930%

Q: And the calculated purity ([2]; 20 mg/mL, pH 8.5-9.0, stored at 25° C., at least two years)?
A: more than 99.9%

Q: And the “Predicted purity after 2 years” value ([2]; 20 mg/mL, pH 9.0, 5° C.)?
A: 100.00%

Q: What about the “Predicted purity after 2 years” value ([2]; 20 mg/mL, pH 9.0, 25° C.) of the same compound?
A: 100.00%

Q: And the “trend in purity over 60 days” value ([2]; solutions pH 7.5, 8.5, 9.0 stored at 40° C.)?
A: no trend in decreased purity

Q: And the IC50 (NCI-H2452)?
A: 400 nM

Q: And the IC50 (BxPC3)?
A: 600 nM

Q: And the IC50 (A-594)?
A: 300 nM

Q: And the IC50 (HS-766T)?
A: 2000 nM

Q: What about the IC50 (NCI-H226) of the same compound?
A: 400 nM

Q: What about the IC50 (A-427) of the same compound?
A: 1500 nM

Q: What about the “impurities as a function of pH” value ([3]; 80° C. five days, pH 6.5-12.2, HPLC) of the same compound?
A: inverse relationship between the amount of impurities and pH

Q: What about the osmolality ([3]; pH 6.5, stored at 5° C. five days) of the same compound?
A: 225 mOsm

Q: And the osmolality ([3]; pH 6.5, stored at 80° C. five days)?
A: 247 mOsm

Q: What about the osmolality ([3]; pH 8.0, stored at 5° C. five days) of the same compound?
A: 272 mOsm

Q: What about the osmolality ([3]; pH 8.0, stored at 80° C. five days) of the same compound?
A: 273 mOsm
